Data published in patent US20250171432A1, “COMPOUNDS AND METHODS OF USE” (Tango Therapeutics, Inc., priority 2022, published 2025).

Experiments:
Assay type in all cases: cell-based
[1] = test system: HAP1 MTAP-deleted cell line; assay: Viability assay (CellTiter-Glo), HAP1 MTAP-deleted; settings: Homo sapiens, 168 h, HAP1 MTAP-deleted cells, 7 days
Procedure, shortened: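 HAP1 MTAP-deleted and MTAP-intact cells seeded, then dosed next day (n=3, 0.2% DMSO) and grown 7 days. Viability by CellTiter-Glo luminescence, expressed as % of DMSO control per cell line.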

[2] = test system: SDMA (PRMT5 activity) in HAP1 MTAP-deleted cell line; assay: SDMA in-cell western assay, HAP1 MTAP-deleted; settings: for IC50 / IC90: Homo sapiens, SDMA in-cell western, HAP1 MTAP-deleted cells, 24 hours compound incubation; for Hap1 MTAP intact/deleted ratio: ratio of SDMA IC50 in HAP1 MTAP-intact to HAP1 MTAP-deleted cell line
[3] = test system: SDMA (PRMT5 activity) in HAP1 MTAP-intact cell line; assay: SDMA in-cell western assay, HAP1 MTAP-intact; settings: Homo sapiens, SDMA in-cell western, HAP1 MTAP-intact cells, 24 hours compound incubation

| Compound | IC50 [2] | IC90 [2] | IC50 ([3]; HAP1, 24 h) | IC50 [1] | Hap1 MTAP intact/deleted ratio [2] | IC50 [3] |
| --- | --- | --- | --- | --- | --- | --- |
| COc1ncc(NC(=O)C(=O)N2C[C@@H](C)CC[C@@H]2c2ccc3sc(C45CCN(CC4)C5)nc3c2)cc1C(N)=O [Compound 81, 5-(2-((2R,5S)-2-(2-(1-azabicyclo[2.2.1]heptan-4-yl)benzo[d]thiazol-5-yl)-5-methylpiperidin-1-yl)-2-oxoacetamido)-2-methoxynicotinamide] | < 5 nM | < 75 nM | > 50 nM | < 100 nM | A (“A” indicates an IC50 ratio greater than or equal to 30 fold) |  |
| COc1ncc(NC(=O)C(=O)N2C[C@@H](C)CC[C@@H]2c2ccc3sc(C4=CCN(C)CC4)nc3c2)cc1C(N)=O [Compound 83, 2-methoxy-5-(2-((2R,5S)-5-methyl-2-(2-(1-methyl-1,2,3,6-tetrahydropyridin-4-yl)benzo[d]thiazol-5-yl)piperidin-1-yl)-2-oxoacetamido)nicotinamide] | < 5 nM | < 75 nM | > 50 nM | < 100 nM | A (“A” indicates an IC50 ratio greater than or equal to 30 fold) |  |
| CCc1cc(NC(=O)C(=O)N2C[C@@H](C)CC[C@@H]2c2ccc3sc(C4=C(C)CN(C)CC4)nc3c2)cnc1N [Compound 84, N-(6-amino-5-ethylpyridin-3-yl)-2-((2R,5S)-2-(2-(1,5-dimethyl-1,2,3,6-tetrahydropyridin-4-yl)benzo[d]thiazol-5-yl)-5-methylpiperidin-1-yl)-2-oxoacetamide] | < 5 nM | < 75 nM |  | < 100 nM | B (“B” indicates an IC50 ratio greater than or equal to 15 fold but lower than 30 fold) | > 50 nM |
| COc1ncc(NC(=O)C(=O)N2C[C@@H](C)CC[C@@H]2c2ccc3sc(C45CC(N(C)C)(C4)C5)nc3c2)cc1C(N)=O [Compound 86] | 5 to 50 nM | > 125 nM | > 50 nM | < 100 nM | A (“A” indicates an IC50 ratio greater than or equal to 30 fold) |  |
| COc1ncc(NC(=O)C(=O)N2C[C@@H](C)CC[C@@H]2c2ccc3ccc(C4CCN(C)CC4)nc3c2)cc1C(N)=O [Compound 88, 2-methoxy-5-(2-((2R,5S)-5-methyl-2-(2-(1-methylpiperidin-4-yl)quinolin-7-yl)piperidin-1-yl)-2-oxoacetamido)nicotinamide] | < 5 nM | < 75 nM | > 50 nM | < 100 nM | A (“A” indicates an IC50 ratio greater than or equal to 30 fold) |  |
| CCc1cc(NC(=O)C(=O)N2C[C@@H](C)CC[C@@H]2c2ccc3sc(CC(C)(C)N(C)C)nc3c2)cnc1N [Compound 89, N-(6-amino-5-ethylpyridin-3-yl)-2-((2R,5S)-2-(2-(2-(dimethylamino)-2-methylpropyl)benzo[d]thiazol-5-yl)-5-methylpiperidin-1-yl)-2-oxoacetamide] | < 5 nM | < 75 nM | > 50 nM | < 100 nM | A (“A” indicates an IC50 ratio greater than or equal to 30 fold) |  |
| CCc1cc(NC(=O)C(=O)N2C[C@@H](C)CC[C@@H]2c2ccc3sc([C@@H]4C[C@@H]5CC(F)(F)C[C@H](C4)N5C)nc3c2)cnc1N [Compound 91, N-(6-amino-5-ethylpyridin-3-yl)-2-((2R,5S)-2-(2-(7,7-difluoro-9-methyl-9-azabicyclo[3.3.1]nonan-3-yl)benzo[d]thiazol-5-yl)-5-methylpiperidin-1-yl)-2-oxoacetamide] | < 5 nM | < 75 nM |  | < 100 nM | A (“A” indicates an IC50 ratio greater than or equal to 30 fold) | > 50 nM |
| CCc1cc(NC(=O)C(=O)N2C[C@@H](C)CC[C@@H]2c2ccc3c(c2)OC2(CCN(C)CC2)O3)cnc1N [Compound 92, N-(6-amino-5-ethylpyridin-3-yl)-2-((2R,5S)-5-methyl-2-(1′-methylspiro[benzo[d][1,3]dioxole-2,4′-piperidin]-5-yl)piperidin-1-yl)-2-oxoacetamide] | 5 to 50 nM | 75 to 125 nM |  | < 100 nM | A (“A” indicates an IC50 ratio greater than or equal to 30 fold) | > 50 nM |

More lines, main results first:

| IC50 [2] | IC90 [2] | IC50 ([3]; HAP1, 24 h) | Compound | IC50 [1] | Hap1 MTAP intact/deleted ratio [2] | IC50 [3] |
| --- | --- | --- | --- | --- | --- | --- |
| < 5 nM | < 75 nM | 5 to 50 nM | CCc1cc(NC(=O)C(=O)N2C[C@@H](C)CC[C@@H]2c2ccc3cc(C4CCN(C)CC4)cnc3c2)cnc1N [Compound 95, N-(6-amino-5-ethylpyridin-3-yl)-2-((2R,5S)-5-methyl-2-(3-(1-methylpiperidin-4-yl)quinolin-7-yl)piperidin-1-yl)-2-oxoacetamide] | < 100 nM | B (“B” indicates an IC50 ratio greater than or equal to 15 fold but lower than 30 fold) |  |
| 5 to 50 nM | 75 to 125 nM | > 50 nM | COc1ncc(NC(=O)C(=O)N2C[C@@H](C)CC[C@@H]2c2ccc3sc([C@H](C)N(C)C)nc3c2)cc1C(N)=O [Compound 96, 2-methoxy-5-[[2-oxo-2-[(2R,5S)-5-methyl-2-[2-[(1S)-1-(dimethylamino)ethyl]-1,3-benzothiazol-5-yl]-1-piperidyl]acetyl]amino]pyridine-3-carboxamide] | < 100 nM | A (“A” indicates an IC50 ratio greater than or equal to 30 fold) |  |
| < 5 nM | < 75 nM | > 50 nM | COc1ncc(NC(=O)C(=O)N2C[C@@H](C)CC[C@@H]2c2ccc3sc(C45CCC(CC4)N(C)C5)nc3c2)cc1C(N)=O [Compound 99, 2-methoxy-5-(2-((2R,5S)-5-methyl-2-(2-(2-methyl-2-azabicyclo[2.2.2]octan-4-yl)benzo[d]thiazol-5-yl)piperidin-1-yl)-2-oxoacetamido)nicotinamide] | < 100 nM | A (“A” indicates an IC50 ratio greater than or equal to 30 fold) |  |
| < 5 nM | < 75 nM | 5 to 50 nM | CCc1cc(NC(=O)C(=O)N2C[C@@H](C)CC[C@@H]2c2ccc3sc(C4CC(C5CN(C)C5)C4)nc3c2)cnc1N (stereo partly drawn) [Compound 100, N-(6-amino-5-ethylpyridin-3-yl)-2-((2R,5S)-5-methyl-2-(2-(3-(1-methylazetidin-3-yl)cyclobutyl)benzo[d]thiazol-5-yl)piperidin-1-yl)-2-oxoacetamide] | < 100 nM | B (“B” indicates an IC50 ratio greater than or equal to 15 fold but lower than 30 fold) |  |
| < 5 nM | < 75 nM | > 50 nM | COc1ncc(NC(=O)C(=O)N2C[C@@H](C)CC[C@@H]2c2ccc3cn([C@@H]4CCN(C)C4)nc3c2)cc1C(N)=O [Compound 102, 2-methoxy-5-(2-((2R,5S)-5-methyl-2-(2-((R)-1-methylpyrrolidin-3-yl)-2H-indazol-6-yl)piperidin-1-yl)-2-oxoacetamido)nicotinamide] | < 100 nM | A (“A” indicates an IC50 ratio greater than or equal to 30 fold) |  |
| < 5 nM | < 75 nM | > 50 nM | COc1ncc(NC(=O)C(=O)N2C[C@@H](C)CC[C@@H]2c2ccc3cn([C@H]4CCN(C)C4)nc3c2)cc1C(N)=O [Compound 103, 2-methoxy-5-(2-((2R,5S)-5-methyl-2-(2-((S)-1-methylpyrrolidin-3-yl)-2H-indazol-6-yl)piperidin-1-yl)-2-oxoacetamido)nicotinamide] | < 100 nM | A (“A” indicates an IC50 ratio greater than or equal to 30 fold) |  |
